Legend:
MDA-MB-231Br3 cells [1] = test: Cell survival assay (trypan blue uptake) in glucose-free medium; type: cell-based
Protocol: By way of non-limiting example, to test the role of BCAAs in the survival of brain metastatic breast cancer cells, changes in the concentrations of BCAAs over time can be measured in MDA-MB-231 and MDA-MB-231Br3 cells when cultured in a glucose-free medium. […] To measure the ability of these two types of cells to oxidize BCAAs, ^14C-Leucine can be added to the culture media and the resulting ^14CO2 measured after 8 hours of incubation. […] To investigate the mechanism by which brain metastatic cells gain such higher activity of BCAA oxidation, the levels of the rate limiting enzymes of BCAA oxidation, branched chain ketoacids dehydrogenase E1 subunit (BCKDH-E1), the inactivated form of BCKDH-E1, pSer293-BCDKH-E1 (phosphorylated at serine 293 of the E1 subunit), the BCKDH inactivating kinase, and the branched chain ketoacids dehydrogenase kinase (BDK) can be determined in both brain metastatic cells and parental cells. […] Also, to test the pro-survival role of BCAAs in MDA-MB-231Br3 cells, BCAAs can be removed from the glucose-free medium containing glutamine. […] For these tests, trypanblue uptake can used to identify dead cells, and triplicates of samples can be used in each group.
Cells were seeded in 6-well plates in full MEM medium containing 5% dialyzed FBS and supplemented with 100 IU/ml penicillin and 100 μg/ml streptomycin (Invitrogen, CA, USA) and 292 ug/ml L-Glutamine (Invitrogen, CA, USA). Medium were replaced with modified MEM after 12 hours. Modified MEM contains basic formula of 5% dialyzed FBS and 100 IU/ml penicillin and 100 μg/ml streptomycin, other supplements like glutamine, glucose, etc. were added in the basic formula according to different needs of experimental groups. Both cell culture medium and trysinized cells were collected after 48 hours and stained with trypan blue. Viability counting was counted by Countess® Automated Cell Counter (Invitrogen, CA, USA).

MDA-MB-231Br3 cells [2] = test: Resistance to chemotherapeutic reagents, brain metastatic vs parental cells (FIG. 1A); type: cell-based; conditions: MDA-MB-231Br3 vs parental MDA-MB-231, triplicates

Compound | cell death upon inhibition of GLUD (MDA-MB-231Br3 cells [1]; MDA-MB-231Br3 cells cultured in glucose-free medium, trend reverted upon addition of α-KG, FIG. 2D) | effect of incremental removal of BCAAs on sensitivity to GLUD inhibition (MDA-MB-231Br3 cells [1]; MDA-MB-231Br3 cells, glucose-free medium, 24 hour treatment, FIG. 3G) | sensitivity to GLUD inhibition, brain metastatic cells vs parental MDA-MB-231 cells (MDA-MB-231Br3 cells [1]; in the absence of glucose, FIG. 2D) | resistance of MDA-MB-231Br3 cells to chemotherapeutic reagent relative to parental cells (MDA-MB-231Br3 cells [2])
O=C(O[C@@H]1Cc2c(O)cc(O)cc2O[C@@H]1c1cc(O)c(O)c(O)c1)c1cc(O)c(O)c(O)c1 [EGCG, epigallocatechin gallate] | dose dependent cell death | significantly sensitizes | more sensitive | –
COc1cccc2c1C(=O)c1c(O)c3c(c(O)c1C2=O)C[C@@](O)(C(=O)CO)C[C@@H]3O[C@H]1C[C@H](N)[C@H](O)[C@H](C)O1 [adriamycin] | – | – | – | more resistance
CC(=O)O[C@H]1C(=O)[C@@]2(C)[C@H]([C@H](OC(=O)c3ccccc3)[C@]3(O)C[C@H](OC(=O)[C@H](O)[C@@H](NC(=O)c4ccccc4)c4ccccc4)C(C)=C1C3(C)C)[C@]1(OC(C)=O)CO[C@@H]1C[C@@H]2O [Taxol] | – | – | – | more resistance

From US9522139B2, “Fructose 1, 6-biphosphatases as new targets for diagnosing and treating breast cancer brain metastasis” (The University of Houston System, priority 2011, dated 2016)
